Measurements taken from BigSolDB 2.1.

O=c1ccc(-c2ccccc2)n[nH]1
solubility (mole fraction)
Conditions | 278.15 K | 283.15 K | 288.15 K | 293.15 K | 298.15 K | 303.15 K | 308.15 K | 313.15 K | 318.15 K
in ethanol | 0.00242 | 0.00289 | 0.00342 | 0.00402 | 0.00466 | 0.00547 | 0.00637 | 0.00736 | 0.00846
in ethylene glycol | 0.00304 | 0.00369 | 0.00445 | 0.00536 | 0.00646 | 0.0076 | 0.00905 | 0.0106 | 0.0124
in isopropanol | 0.00411 | 0.00489 | 0.00579 | 0.00684 | 0.00795 | 0.0094 | 0.0109 | 0.0126 | 0.0142
in methanol | 0.00124 | 0.00153 | 0.00183 | 0.0022 | 0.00265 | 0.00309 | 0.00365 | 0.00432 | 0.00502
in water | 2.53e-06 | 3.14e-06 | 3.86e-06 | 4.72e-06 | 5.84e-06 | 7.08e-06 | 8.51e-06 | 1.02e-05 | 1.22e-05
